Experimental data: US11066414B2, “Cot modulators and methods of use thereof” (Gilead Sciences, Inc., priority 2015, dated 2021)
Like-named read-outs stand apart in the source and are kept apart here.

Tests used:
TNFα = experiment: Cot Monocyte TNFα Cell Based Assay
Human Cot = Human Cot (Homo sapiens (Human), UniProt P41279); experiment: High Throughput Cot Biochemical Assay
[1] = Homo sapiens, Monocyte, read-out: EC50 TNF, LPS-stimulated human monocytes, TNFα
[2] = IC50 HTRF, Cot HTRF (TR-FRET) biochemical assay
[3] = read-out: EC50 TNF, LPS-stimulated human monocytes, TNFα TR-FRET
[4] = read-out: IC50 HTRF, Cot HTRF (TR-FRET KinEASE) biochemical assay, 400 μM ATP
[5] = Homo sapiens, Monocyte, read-out: EC50 TNF, LPS-stimulated human monocytes, TNFα TR-FRET
[6] = IC50 HTRF, Cot HTRF (TR-FRET KinEASE) biochemical assay, 400 μM ATP

Human Cot, sequence (P41279 30-397): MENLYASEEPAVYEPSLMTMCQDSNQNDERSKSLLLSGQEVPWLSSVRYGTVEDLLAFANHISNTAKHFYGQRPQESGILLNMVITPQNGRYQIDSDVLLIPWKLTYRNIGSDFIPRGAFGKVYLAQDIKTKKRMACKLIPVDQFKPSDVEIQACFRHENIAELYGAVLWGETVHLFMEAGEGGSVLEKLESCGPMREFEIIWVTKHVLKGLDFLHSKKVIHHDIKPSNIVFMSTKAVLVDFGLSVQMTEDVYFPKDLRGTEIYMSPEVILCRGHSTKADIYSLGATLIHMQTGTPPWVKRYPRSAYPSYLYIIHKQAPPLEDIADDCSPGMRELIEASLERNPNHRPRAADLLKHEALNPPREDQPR

Row | SMILES | EC50 (TNFα; [1]) | IC50 (Human Cot; [2]) | other results
1 | Cn1nnc2cccc([C@H](Nc3cc(Cl)c4ncc(C#N)c(NCC(C)(C)C)c4c3)c3cn(C4(C(F)(F)F)CC4)nn3)c21 [Example 522, (S)-8-chloro-6-(((1-methyl-1H-benzo[d] [1,2,3]triazol-7-yl)(1-(1-(trifluoromethyl)-cyclopropyl)-1H-1,2,3-triazol-4-yl)methyl)amino)-4-(neopentylamino)-quinoline-3-carbonitrile] | 0.052 µM | 0.005 µM | 
2 | CCc1ncccc1[C@H](Nc1cc(C#N)c2ncc(C#N)c(NCC(C)(C)C)c2c1)c1cn(C2(C(F)F)CC2)nn1 [Example 606, (S)-6-(((1-{1-(difluoromethyl)-cyclopropyl)-1H-1,2,3-triazol-4-yl)(2-ethylpyridin-3-yl)methyl)amino)-4-(neopentylamino)quinoline-3,8-dicarbonitrile] | 0.027 µM | 0.002 µM | 
3 | Cn1nnc2cccc([C@H](Nc3cc(C#N)c4ncc(C#N)c(NCC(C)(C)C)c4c3)c3cn(C4(C(F)F)CC4)nn3)c21 [Example 559, (S)-6-(((4-(1-1-(difluoromethyl)cyclopropyl)-1H-1,2,3-triazol-4-yl)(1-methyl-1H-benzo[d] [1,2,3]triazol-7-yl)methyl)amino)-4-(neopentylamino)quinoline-3,8-dicarbonitrile] |  |  | EC50 (TNFα; read-out: EC50 TNF, LPS-stimulated human monocytes, TNFα): 0.042 µM; IC50 (Human Cot; read-out: IC50 HTRF, Cot HTRF (TR-FRET) biochemical assay): 0.002 µM
4 | CCc1nc(F)ccc1[C@H](Nc1cc(C#N)c2ncc(C#N)c(NCC(C)(C)C)c2c1)c1cn(C2(C(F)F)CC2)nn1 [Example 597, (S)-6-(((1-(1-(difluoromethyl)cyclopropyl)-1H-1,2,3-triazol-4-yl)(2-ethyl-6-fluoropyridin-3-yl)methyl)amino)-4-(neopentylamino)quinoline-3,8-dicarbonitrile] | 0.15 µM | 0.003 µM | 
5 | CC(C)(CNc1c(C#N)cnc2c(C#N)cc(N[C@H](c3cn(C4(C(F)F)CC4)nn3)c3cccc4c(=O)[nH]ccc34)cc12)C(F)(F)F [Example 842] |  |  | EC50 (TNFα; [3]): 0.563 µM; IC50 (Human Cot; [4]): 0.003 µM
6 | CCN1CCC(n2cc(C(Nc3cc(Cl)c4ncc(C#N)c(Nc5ccc(F)c(Cl)c5)c4c3)c3cncnc3)nn2)CC1 (centres unmarked) [Example 366, 8-chloro-4-((3-chloro-4-fluorophenyl)amino)-6-(((1-(1-ethylpiperidin-4-yl)-1H-1,2,3-triazol-4-yl)(pyrimidin-5-yl)methyl)amino)-quinoline-3-carbonitrile] | 0.336 µM | 0.005 µM | 
7 | CC(C)(C)CNc1c(C#N)cnc2c(Cl)cc(N[C@H](c3cn(C4CCN(C(C)(C)C)CC4)nn3)c3cccc4ncsc34)cc12 [Example 419, (S)-6-((benzo[d]thiazol-7-yl(1-(1-(tert-butyl)piperidin-4-yl)-1H-1,2,3-triazol-4-yl)methyl)amino)-8-chloro-4-(neopentylamino)quinoline-3-carbonitrile] | 0.049 µM | 0.003 µM | 
8 | Cn1ncc2c([C@H](Nc3cc(Cl)c4ncc(C#N)c(NCC(C)(C)C)c4c3)c3cn(C4(C(F)F)CC4)nn3)cccc21 [Example 496, (S)-8-chloro-6-(((1-(1-(difluoromethyl)-cyclopropyl)-1H-1,2,3-triazol-4-yl)(1-methyl-1H-indazol-4-yl)methyl)amino)-4-(neopentylamino)quinoline-3-carbonitrile] | 0.467 µM | 0.006 µM | 
9 | Cc1nc(F)ccc1[C@H](Nc1cc(Cl)c2ncc(C#N)c(NCC(C)(C)C(F)(F)F)c2c1)c1cn(C23CC(C2)C3)nn1 [Example 719, (S)-6-(((1-(bicyclo[1.1.1]pentan-1-yl)-1H-1,2,3-triazol-4-yl)(6-fluoro-2-methylpyridin-3-yl)methyl)amino)-8-chloro-4-((3,3,3-trifluoro-2,2-dimethylpropyl)amino)quinoline-3-carbonitrile] | 0.024 µM | 0.002 µM | 
10 | Cc1nc(F)ccc1[C@H](Nc1cc(C#N)c2ncc(C#N)c(NCC(C)(C)CCl)c2c1)c1cn(C2(C(F)(F)F)CC2)nn1 [Example 637, (S)-4-((3-chloro-2,2-dimethylpropyl)amino)-6-(((6-fluoro-2-methylpyridin-3-yl)(1-(1-(trifluoromethyl)-cyclopropyl)-1H-1,2,3-triazol-4-yl)methyl)amino)-quinoline-3,8-dicarbonitrile] | 0.085 µM | 0.003 µM | 
11 | Cc1nc(C#N)ccc1[C@H](Nc1cc(C#N)c2ncc(C#N)c(NCC(C)(C)C)c2c1)c1cn(C2(C(F)(F)F)CC2)nn1 [Example 830, (S)-6-(((6-cyano-2-methylpyridin-3-yl)(1-(1-(trifluoromethyl)cyclopropyl)-1H-1,2,3-triazol-4-yl)methyl)amino)-4-(neopentylamino)quinoline-3,8-dicarbonitrile] |  |  | EC50 (TNFα; [5]): 0.384 µM; IC50 (Human Cot; [6]): 0.016 µM
12 | Cn1ccc2c([C@H](Nc3cc(Cl)c4ncc(C#N)c(NCC(C)(C)C)c4c3)c3cn(C4CCC4)nn3)cccc2c1=O [Example 796, (S)-8-chloro-6-(((1-cyclobutyl-1H-1,2,3-triazol-4-yl)(2-methyl-1-oxo-1,2-dihydroisoquinolin-5-yl)methyl)amino)-4-(neopentylamino)quinoline-3-carbonitrile] | 0.031 µM | 0.002 µM | 
13 | COc1nccc2c([C@H](Nc3cc(C#N)c4ncc(C#N)c(NCC(C)(C)C(F)(F)F)c4c3)c3cn(C45CC(C4)C5)nn3)cccc12 [Example 820, (S)-6-(((1-(bicyclo[1.1.1]pentan-1-yl)-1H-1,2,3-triazol-4-yl)(1-methoxylsoquinolin-5-yl)methyl)amino)-4-((3,3,3-trifluoro-2,2-dimethylpropyl)amino)quinoline-3,8-dicarbonitrile] |  |  | EC50 (TNFα; [3]): 0.033 µM; IC50 (Human Cot; [4]): 0.003 µM
14 | Cn1ccc2c([C@H](Nc3cc(C#N)c4ncc(C#N)c(NCC(C)(C)C)c4c3)c3cn(C4(C)CC4)nn3)cccc2c1=O [Example 879, (S)-6-(((2-methyl-1-oxo-1,2-dihydroisoquinolin-5-yl)(1-(1-methylcyclopropyl)-1H-1,2,3-triazol-4-yl)methyl)amino)-4-(neopentylamino)quinoline-3,8-dicarbonitrile] |  |  | EC50 (TNFα; [5]): 0.013 µM; IC50 (Human Cot; [6]): 0.001 µM
15 | Cc1nc(F)ccc1[C@H](Nc1cc(Cl)c2ncc(C#N)c(NCC(C)(C)C(F)(F)F)c2c1)c1cn(C(C)(C)C)nn1 [Example 715, (S)-6-(((1-(tert-butyl)-1H-1,2,3-triazol-4-yl)(6-fluoro-2-methylpyridin-3-yl)methyl)amino)-8-chloro-4-((3,3,3-trifluoro-2,2-dimethylpropyl)amino)quinoline-3-carbonitrile] | 0.091 µM | 0.003 µM | 
16 | Cc1nc(F)ccc1[C@H](Nc1cc(Cl)c2ncc(C#N)c(N[C@H]3CCOC3(C)C)c2c1)c1cn(C2(C(F)F)CC2)nn1 [Example 516, 8-chloro-6-(((S)-(1-(1-(difluoromethyl)-cyclopropyl)-1H-1,2,3-triazol-4-yl)(6-fluoro-2-methylpyridin-3-yl)methyl)amino)-4-(((S)-2,2-dimethyltetrahydrofuran-3-yl)amino)quinoline-3-carbonitrile] | 0.034 µM | 0.002 µM | 
17 | Cc1nc(F)ccc1[C@H](Nc1cc(Cl)c2ncc(C#N)c(NCC3(C)CCC3)c2c1)c1cn(C2(C(F)F)CC2)nn1 [Example 502, (S)-8-chloro-6-(((1-(1-(difluoromethyl)-cyclopropyl)-1H-1,2,3-triazol-4-yl)(6-fluoro-2-methylpyridin-3-yl)methyl)-amino)-4-(((1-methylcyclobutyl)methyl)-amino) quinoline-3-carbonitrile] | 0.206 µM | 0.006 µM | 
18 | Cc1nc(F)ccc1[C@H](Nc1cc(Cl)c2ncc(C#N)c(NCC(C)(C)C)c2c1)c1nnn(C2(C3CC3)CC2)c1F [Example 949, (S)-6-(((1-([1,1′-bi(cyclopropan)]-1-yl)-5-fluoro-1H-1,2,3-triazol-4-yl)(6-fluoro-2-methylpyridin-3-yl)methyl)amino)-8-chloro-4-(neopentylamino)quinoline-3-carbonitrile] |  |  | EC50 (TNFα; [5]): 0.034 µM; IC50 (Human Cot; [6]): 0.004 µM
19 | [2H][C@](Nc1cc(Cl)c2ncc(C#N)c(Nc3cnc(F)c(F)c3)c2c1)(c1ccc(F)nc1)c1cn(C2CC2)nn1 [Example 140, (S)-8-chloro-6-(((1-cyclopropyl-1H-1,2,3-triazol-4-yl)(6-fluoropyridin-3-yl)methyl-d)amino)-4-((5,6-difluoropyridin-3-yl)amino)quinoline-3-carbonitrile] | 0.183 µM | 0.003 µM | 
20 | Cc1nc(F)ccc1[C@H](Nc1cc(Cl)c2ncc(C#N)c(NCC(C)(C)C)c2c1)c1cn([C@@H](C)CF)nn1 [Example 546, 8-chloro-6-(((S)-(6-fluoro-2-methylpyridin-3-yl)(1-((S)-1-fluoropropan-2-yl)-1H-1,2,3-triazol-4-yl)methyl)amino)-4-(neopentylamino)quinoline-3-carbonitrile] | 0.042 µM | 0.002 µM | 
21 | CC(C)(C)CNc1c(C#N)cnc2c(C#N)cc(N[C@H](c3cn([C@@H]4C[C@@H]4F)nn3)c3cccc4ncccc34)cc12 [Example 899, 6-(((S)-(1-((1R,2S)-2-fluorocyclopropyl)-1H-1,2,3-triazol-4-yl)(quinolin-5-yl)methyl)amino)-4-(neopentylamino)quinoline-3,8-dicarbonitrile] |  |  | EC50 (TNFα; [5]): 0.029 µM; IC50 (Human Cot; [6]): 0.002 µM
22 | Cc1nc(F)ccc1[C@H](Nc1cc(C#N)c2ncc(C#N)c(NCC3(C(F)F)CC3)c2c1)c1cn(C2(C(F)(F)F)CC2)nn1 [Example 638, (S)-4-(((1-(difluoromethyl)-cyclopropyl)methyl)amino)-6-(((6-fluoro-2-methylpyridin-3-yl)(1-(1-(trifluoromethyl)cyclopropyl)-1H-1,2,3-triazol-4-yl)methyl)amino)quinoline-3,8-dicarbonitrile] | 0.858 µM | 0.058 µM | 
